{"source": "patent US20210386367A1", "about": "“DEVICES AND SYSTEMS FOR GASTROINTESTINAL MICROBIOME DETECTION AND MANIPULATION” (Progenity, Inc., priority 2018, published 2021)", "key": {"[1]": {"tested_on": "Escherichia coli", "experiment": "Broth microdilution MIC, 50 clinical isolates (incl. ESBL, one NDM-1)", "type": "cell-based", "protocol": "Minimal inhibitory concentration (MIC) values were determined by broth microdilution or agar dilution in accordance with guidelines from the Clinical and Laboratory Standards Institute (CLSI; (1) “Methods for Dilution Antimicrobial Susceptibility Tests for Bacteria That Grow Aerobically; Approved Standard; 11th ed.” CLSI standard M07-A11, 2018; (2) “Performance Standards for Antimicrobial Susceptibility Testing; Twenty-Eighth Informational Supplement,” CLSI document M100-S28, 2018; and (3) “Methods for Antimicrobial Susceptibility Testing of Anaerobic Bacteria; Approved Standard—Eighth Edition,” CLSI document M11-A8, 2012).\nTested aerobically by broth microdilution: • Escherichia coli, n=50 • Klebsiella spp., n=50 • Pseudomonas aeruginosa, n=50 • Streptococcus spp., n=50 • Staphylococcus aureus, n=50 • Enterococcus faecalis, n=50 • Enterobacter aerogenes, n=50 • Proteus mirabilis, n=50\nBroth microdilution testing of aerobic bacteria was conducted in cation-adjusted Mueller Hinton broth (MHBII). For testing streptococci, lysed horse blood (LHB) was added to MHBII broth at a final concentration of 3%. Where LHB was used, it was added after filtering.\nBroth microdilution susceptibility testing in 96-well microplates was conducted in accordance with CLSI methods (1) and (2). Automated liquid handlers were used to conduct serial dilutions and liquid transfers, including the Multidrop 384 (Labsystems, Helsinki, Finland), Biomek 2000, and the Biomek FX (Beckman Coulter, Fullerton, Calif.). All wells in columns 2 through 12 of a standard 96-well microdilution plate (Costar 3795) were filled with 150 μL of the appropriate diluent. Then, 300 μL of the test agents were added to the wells of column 1 of the plates at 100× the highest final concentration to be tested. Serial two-fold dilutions were made across the rows through column 11 using the Biomek 2000. The wells of column 12 contained no drug and served as the growth control wells. This plate served as the “mother plate” from which MIC assay plates or “daughter plates” were made.\nThe daughter plates were loaded with 190 μL per well of the appropriate medium using the Multidrop 384. The daughter plates were created using the Biomek FX which transferred 2 μL of drug solution from each well of a mother plate to each corresponding well of the daughter plate in a single step. A standardized inoculum of each test organism was prepared per CLSI methods (1) to equal a 0.5 McFarland standard, followed by a dilution of 1:20 for aerobes and 1:10 for anaerobes. The plates were then inoculated with 10 μL of the diluted inoculum using the Biomek 2000 from low to high drug concentration, resulting in a final concentration of approximately 5×10^5 CFU/mL per well. An un-inoculated plate was incubated in parallel for each medium for the purpose of assessing solubility of the drug in the test media.\nInoculated plates were stacked 3 or 4 high, covered with a sterile lid on the top plate, placed into boxes with CO2 planchets (streptococci) or plastic bags (all other isolates). Plates were incubated at 35° C. for 16-24 hr in ambient air for aerobes or for 42-48 hr in the anaerobic environment of the Bactron II anaerobe chamber (Sheldon Manufacturing Co.; Cornelius, Oreg.). Following incubation, the microplates were removed from the incubator and viewed from the bottom using a plate viewer. The MIC values were read and recorded as the lowest concentration of drug that inhibited visible growth of the organism as per CLSI methods (1) and (2)."}, "[2]": {"tested_on": "E. coli ATCC 35218", "experiment": "Time-kill assay", "type": "cell-based, Escherichia coli", "details": "2×, 4×, 8× MIC; 2, 6, 24 hr"}, "[3]": {"tested_on": "E. coli spontaneous mutants", "experiment": "Broth microdilution MIC of spontaneous mutants", "type": "cell-based, Escherichia coli", "details": "for MIC: Escherichia coli", "how_it_was_run": "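Spontaneous mutants from drug selection plates were tested by CLSI broth microdilution in MHB II with two-fold serial drug dilutions. Inoculum was about 5×10^5 CFU/mL, incubated aerobically at 35° C. for 18-20 hr. MIC was the lowest concentration inhibiting visible growth.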"}}, "note": "“Also recorded” adds a separate entry of the source. Where two headings read alike, the source gives them in different places."}
{"smiles": "C[C@@H](O)[C@H]1C(=O)N2C(C(=O)O)=C(S[C@@H]3CN[C@H](C(=O)N(C)C)C3)[C@H](C)[C@H]12", "note": "[meropenem]", "values": [{"measurement": "% R", "setting": "[1]", "result": 2, "unit": "%"}, {"measurement": "% S", "setting": "[1]", "result": "Ninety-eight"}, {"measurement": "Mode", "setting": "[1]", "result": 0.015, "unit": "µg/mL"}, {"measurement": "relative activity among drugs tested", "setting": "[1]", "result": "most active drug tested; also recorded: most active agent"}, {"measurement": "Cumulative percentage of isolates inhibited at MIC", "setting": "[1]; 0.015 μg/mL", "result": 78.0, "unit": "%"}, {"measurement": "Number of test isolates at MIC", "setting": "[1]; 0.015 μg/mL", "result": 21}, {"measurement": "Cumulative percentage of isolates inhibited at MIC", "setting": "[1]; 0.03 μg/mL", "result": 90.0, "unit": "%"}, {"measurement": "Number of test isolates at MIC", "setting": "[1]; 0.03 μg/mL", "result": 6}, {"measurement": "Cumulative percentage of isolates inhibited at MIC", "setting": "[1]; 0.06 μg/mL", "result": 92.0, "unit": "%"}, {"measurement": "Number of test isolates at MIC", "setting": "[1]; 0.06 μg/mL", "result": 1}, {"measurement": "Cumulative percentage of isolates inhibited at MIC", "setting": "[1]; >8 μg/mL", "result": 100.0, "unit": "%"}, {"measurement": "Number of test isolates at MIC", "setting": "[1]; >8 μg/mL", "result": 1}, {"measurement": "MIC50", "setting": "[1]; Escherichia coli, read-out: MIC50", "result": 0.015, "unit": "µg/mL"}, {"measurement": "MIC90", "setting": "[1]; Escherichia coli, read-out: MIC90", "result": 0.03, "unit": "µg/mL"}, {"measurement": "Cumulative percentage of isolates inhibited at MIC", "setting": "[1]; […]", "result": 98.0, "unit": "%"}, {"measurement": "Number of test isolates at MIC", "setting": "[1]; […]", "result": 3}, {"measurement": "% R", "setting": "[1]; listed as MEM", "result": 2, "unit": "%"}, {"measurement": "% S", "setting": "[1]; listed as MEM", "result": 98, "unit": "%"}, {"measurement": "Cumulative percentage of isolates inhibited at MIC", "setting": "[1]; ≤0.008 μg/mL", "result": 36.0, "unit": "%"}, {"measurement": "Number of test isolates at MIC", "setting": "[1]; ≤0.008 μg/mL", "result": 18}, {"measurement": "time-kill kinetics outcome (bactericidal = ≥3 log reduction in CFU per mL)", "setting": "[2]", "result": "rapid killing and bactericidal activity at the two higher concentrations at 24 hr"}, {"measurement": "MIC", "setting": "[3]; ATCC25922, E. coli ATCC 25922, selected on rifaximin 4X MIC, Colony A", "result": 0.008, "unit": "µg/mL"}, {"measurement": "MIC", "setting": "[3]; ATCC25922, E. coli ATCC 25922, selected on rifaximin 4X MIC, Colony B", "result": 0.008, "unit": "µg/mL"}, {"measurement": "MIC", "setting": "[3]; ATCC25922, E. coli ATCC 25922, selected on rifaximin 8X MIC, Colony A", "result": 0.008, "unit": "µg/mL"}, {"measurement": "MIC", "setting": "[3]; ATCC25922, E. coli ATCC 25922 Parent (Table 52)", "result": 0.03, "unit": "µg/mL"}, {"measurement": "MIC", "setting": "[3]; ATCC35218, E. coli ATCC 35218, selected on rifaximin 4X MIC, Colony A", "result": 0.015, "unit": "µg/mL"}, {"measurement": "MIC", "setting": "[3]; ATCC35218, E. coli ATCC 35218, selected on rifaximin 4X MIC, Colony B", "result": 0.015, "unit": "µg/mL"}, {"measurement": "MIC", "setting": "[3]; ATCC35218, E. coli ATCC 35218, selected on rifaximin 8X MIC, Colony A", "result": 0.015, "unit": "µg/mL"}, {"measurement": "MIC", "setting": "[3]; ATCC35218, E. coli ATCC 35218, selected on rifaximin 8X MIC, Colony B", "result": 0.015, "unit": "µg/mL"}, {"measurement": "MIC", "setting": "[3]; ATCC35218, E. coli ATCC 35218 Parent (Table 52)", "result": 0.015, "unit": "µg/mL"}, {"measurement": "MIC", "setting": "[3]; E. coli MMX 1312, selected on ceftriaxone 4X MIC, Colony A", "result": 0.015, "unit": "µg/mL"}, {"measurement": "MIC", "setting": "[3]; E. coli MMX 1312, selected on ceftriaxone 4X MIC, Colony B", "result": 0.015, "unit": "µg/mL"}, {"measurement": "MIC", "setting": "[3]; E. coli MMX 1312, selected on ceftriaxone 4X MIC, Colony C", "result": 0.03, "unit": "µg/mL"}, {"measurement": "MIC", "setting": "[3]; E. coli MMX 1312, selected on ceftriaxone 8X MIC, Colony A", "result": 0.015, "unit": "µg/mL"}, {"measurement": "MIC", "setting": "[3]; E. coli MMX 1312, selected on ceftriaxone 8X MIC, Colony B", "result": 0.03, "unit": "µg/mL"}, {"measurement": "MIC", "setting": "[3]; E. coli MMX 1312, selected on ceftriaxone 8X MIC, Colony C", "result": 0.03, "unit": "µg/mL"}, {"measurement": "MIC", "setting": "[3]; E. coli MMX 1312, selected on rifaximin 4X MIC, Colony A", "result": 0.008, "unit": "µg/mL"}, {"measurement": "MIC", "setting": "[3]; E. coli MMX 1312, selected on rifaximin 4X MIC, Colony B", "result": 0.008, "unit": "µg/mL"}, {"measurement": "MIC", "setting": "[3]; E. coli MMX 1312, selected on rifaximin 8X MIC, Colony A", "result": 0.015, "unit": "µg/mL"}, {"measurement": "MIC", "setting": "[3]; E. coli MMX 1312, selected on rifaximin 8X MIC, Colony B", "result": 0.015, "unit": "µg/mL"}, {"measurement": "MIC", "setting": "[3]; E. coli MMX 1312 Parent", "result": 0.015, "unit": "µg/mL"}, {"measurement": "MIC", "setting": "[3]; E. coli MMX 1312 Parent (Table 49)", "result": 0.015, "unit": "µg/mL"}, {"measurement": "MIC", "setting": "[3]; E. coli MMX 1312 Parent (Table 52)", "result": 0.015, "unit": "µg/mL"}, {"measurement": "MIC", "setting": "[3]; E. coli MMX 1312 mutant selected on meropenem 4X MIC, colony A", "result": 0.015, "unit": "µg/mL"}, {"measurement": "MIC", "setting": "[3]; E. coli MMX 1312 mutant selected on meropenem 4X MIC, colony B", "result": 0.015, "unit": "µg/mL"}, {"measurement": "MIC", "setting": "[3]; E. coli MMX 1312 mutant selected on meropenem 4X MIC, colony C", "result": 0.015, "unit": "µg/mL"}, {"measurement": "MIC", "setting": "[3]; E. coli MMX 1312 mutant selected on meropenem 8X MIC, colony A", "result": 0.015, "unit": "µg/mL"}, {"measurement": "MIC", "setting": "[3]; E. coli MMX 1312 mutant selected on meropenem 8X MIC, colony B", "result": 0.015, "unit": "µg/mL"}, {"measurement": "MIC", "setting": "[3]; E. coli MMX 1312 mutant selected on meropenem 8X MIC, colony C", "result": 0.015, "unit": "µg/mL"}, {"measurement": "broth microdilution MIC of selected colonies relative to parent strain", "setting": "[3]; colonies selected at 4× and 8× the MIC", "result": "consistent with that of the parent strain"}]}
